Experimental data as given in PMC4807618 (Angewandte Chemie (International ed. in English), 2016).

Columns and labels:
[1] = test system: NA activity of oseltamivir-susceptible (wild-type) H1N1 influenza virus A/Brisbane/59/2007; assay type: biochemical
[2] = test system: NA activity of oseltamivir-susceptible (wild-type) H1N1 influenza virus A/Netherlands/049/2008; assay type: biochemical

## CCn1cc(C(=O)O)c(=O)c2ccc(C)nc21 [Nalidixic acid, nalidixic acid]
[1]
  effect on NA activity: no effect
[2]
  effect on NA activity: no effect

## CCN[C@H]1C[C@H](C)S(=O)(=O)c2sc(S(N)(=O)=O)cc21 [Dorzolamide, dorzolamide]
[1]
  effect on NA activity: no effect
[2]
  effect on NA activity: no effect
